# Legend:
# bedstraw = assay: Test B pre/postemergence bedstraw; assay type: in vivo, Galium aparine; settings: scale of 0 to 10 where 0 is no effect and 10 is complete control; for Plant response rating, Bedstraw: Preemergence
# In short: (§1)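 Response is a visual 0-to-10 score relative to untreated plants, where 0 means no effect and 10 means complete control, taken twelve to sixteen days after application. Treatments went onto soil at planting and onto foliage of 1- to 4-leaf plants, using a surfactant-containing non-phytotoxic solvent.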
# blackgrass = assay: Test B pre/postemergence blackgrass; assay type: in vivo, Alopecurus myosuroides
# In short: as §1
# surinam grass = assay: Test B pre/postemergence surinam grass; assay type: in vivo, Brachiaria decumbens
# In short: as §1
# cocklebur = assay: Test B pre/postemergence cocklebur; assay type: in vivo, Xanthium strumarium
# In short: as §1
# corn = assay: Test B pre/postemergence corn; assay type: in vivo, Zea mays
# In short: as §1
# morningglory = assay: Test B pre/postemergence morningglory; assay type: in vivo, Ipomoea hederacea; settings: for Plant response rating, Morningglory: scale of 0 to 10 where 0 is no effect and 10 is complete control
# In short: as §1
# pigweed = assay: Test B pre/postemergence pigweed; assay type: in vivo, Amaranthus retroflexus; settings: for Plant response rating, Redroot pigweed: scale of 0 to 10 where 0 is no effect and 10 is complete control
# In short: as §1
# rape = assay: Test B pre/postemergence rape; assay type: in vivo, Brassica napus; settings: for Plant response rating, Rape: scale of 0 to 10 where 0 is no effect and 10 is complete control
# In short: as §1
# velvetleaf = assay: Test B pre/postemergence velvetleaf; assay type: in vivo, Abutilon theophrasti; settings: for Plant response rating, Velvetleaf: scale of 0 to 10 where 0 is no effect and 10 is complete control
# In short: as §1
# wheat = assay: Test B pre/postemergence wheat; assay type: in vivo, Triticum aestivum; settings: for Plant response rating, Wheat: scale of 0 to 10 where 0 is no effect and 10 is complete control
# In short: as §1
# wild oat = assay: Test B pre/postemergence wild oat; assay type: in vivo, Avena fatua; settings: for Plant response rating, Wild oats: scale of 0 to 10 where 0 is no effect and 10 is complete control
# In short: as §1
# purple nutsedge = assay: Test B pre/postemergence purple nutsedge; assay type: in vivo, Cyperus rotundus; settings: for Plant response rating, Nutsedge: scale of 0 to 10 where 0 is no effect and 10 is complete control
# In short: as §1
# rice = assay: Test B flood test rice; assay type: in vivo, Oryza sativa
# In short: (§2)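 Plants were grown to the 2-leaf stage before treatment with test chemical, then held in a greenhouse for twelve to sixteen days. Injury was visually rated against untreated controls on a 0–10 scale, where 0 is no effect and 10 is complete control.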
# smallflower flatsedge = assay: Test B flood test smallflower flatsedge; assay type: in vivo, Cyperus difformis
# In short: as §2
# duck salad = assay: Test B flood test duck salad; assay type: in vivo, Heteranthera limosa
# In short: as §2
# bamyardgrass = assay: Test B flood test barnyardgrass; assay type: in vivo, Echinochloa crus-galli
# In short: as §2
# [1] = Postemergence, Rate 500 g/ha, scale of 0 to 10 where 0 is no effect and 10 is complete control
# [2] = Preemergence, Rate 62 g/ha, scale of 0 to 10 where 0 is no effect and 10 is complete control
# [3] = Preemergence, Rate 125 g/ha, scale of 0 to 10 where 0 is no effect and 10 is complete control
# [4] = Preemergence, Rate 250 g/ha, scale 0 to 10, 0 is no effect, 10 is complete control
# [5] = Preemergence, Rate 500 g/ha, scale 0 to 10, 0 is no effect, 10 is complete control
# [6] = Rate 62 g/ha, Postemergence, scale 0 to 10 (0 no effect, 10 complete control)
# [7] = Rate 125 g/ha, Postemergence, scale 0 to 10, 0 is no effect, 10 is complete control
# [8] = Postemergence, Rate 250 g/ha, scale 0 to 10
# [9] = Rate 62 g/ha, flood test species, Pre-emergence, visual evaluation after twelve to sixteen days
# [10] = Rate 125 g/ha, under heading Pre-emergence, flood test species, visual evaluation after twelve to sixteen days
# [11] = Rate 250 g/ha, Pre-emergence (flood test species), scale 0 to 10, 0 is no effect, 10 is complete control
# [12] = Rate 500 g/ha, Pre-emergence, flood test species, scale 0 to 10 (0 no effect, 10 complete control)
compound,measurement,setting,value
CC[Si](C)(C)Cn1c(=O)on(C(=O)N(c2ccc(Cl)cc2)C(C)C)c1=O [Compound 460],Bedstraw plant response rating,"bedstraw; Postemergence, Rate 500 g/ha",8
same,"Plant response rating, Bedstraw",bedstraw; Rate 62 g/ha,0
same,"Plant response rating, Bedstraw",bedstraw; Rate 125 g/ha,0
same,Blackgrass plant response rating,blackgrass; [1],8
same,"Plant response rating, Blackgrass",blackgrass; [2],0
same,"Plant response rating, Blackgrass",blackgrass; [3],0
same,Blackgrass plant response rating,blackgrass; [4],0
same,Blackgrass plant response rating,blackgrass; [5],3
same,Blackgrass plant response rating,blackgrass; [6],2
same,B. signalgrass plant response rating,"surinam grass; Postemergence, Rate 250 g/ha, scale 0 to 10, 0 no effect, 10 complete control",0
same,B. signalgrass plant response rating,surinam grass; [1],2
same,"Plant response rating, B. signalgrass",surinam grass; [2],0
same,"Plant response rating, B. signalgrass",surinam grass; [3],0
same,B. signalgrass plant response rating,surinam grass; [4],0
same,B. signalgrass plant response rating,surinam grass; [5],0
same,B. signalgrass plant response rating,surinam grass; [6],0
same,B. signalgrass plant response rating,surinam grass; [7],0
same,Cocklebur plant response rating,cocklebur; [8],0
same,Cocklebur plant response rating,cocklebur; [1],0
same,"Plant response rating, Cocklebur",cocklebur; [2],0
same,"Plant response rating, Cocklebur",cocklebur; [3],0
same,Cocklebur plant response rating,cocklebur; [4],0
same,Cocklebur plant response rating,cocklebur; [5],0
same,Cocklebur plant response rating,cocklebur; [6],0
same,Cocklebur plant response rating,cocklebur; [7],0
same,Corn plant response rating,corn; [8],0
same,Corn plant response rating,corn; [1],0
same,"Plant response rating, Corn",corn; [2],0
same,"Plant response rating, Corn",corn; [3],0
same,Corn plant response rating,corn; [4],0
same,Corn plant response rating,corn; [5],2
same,Corn plant response rating,corn; [6],0
same,Corn plant response rating,corn; [7],0
same,Morningglory plant response rating,morningglory; [8],7
same,"Plant response rating, Morningglory","morningglory; Preemergence, Rate 62 g/ha",0
same,"Plant response rating, Morningglory","morningglory; Preemergence, Rate 125 g/ha",0
same,Morningglory plant response rating,morningglory; [4],0
same,Morningglory plant response rating,morningglory; [5],0
same,Morningglory plant response rating,morningglory; [6],7
same,Morningglory plant response rating,morningglory; [7],7
same,Redroot pigweed plant response rating,pigweed; [8],1
same,"Plant response rating, Redroot pigweed","pigweed; Preemergence, Rate 62 g/ha",0
same,"Plant response rating, Redroot pigweed","pigweed; Preemergence, Rate 125 g/ha",0
same,Redroot pigweed plant response rating,pigweed; [4],0
same,Redroot pigweed plant response rating,pigweed; [5],0
same,Redroot pigweed plant response rating,pigweed; [6],0
same,Redroot pigweed plant response rating,pigweed; [7],0
same,Rape plant response rating,rape; [8],0
same,"Plant response rating, Rape","rape; Preemergence, Rate 62 g/ha",0
same,"Plant response rating, Rape","rape; Preemergence, Rate 125 g/ha",0
same,Rape plant response rating,rape; [4],0
same,Rape plant response rating,rape; [5],0
same,Rape plant response rating,rape; [6],0
same,Rape plant response rating,rape; [7],0
same,Velvetleaf plant response rating,velvetleaf; [8],0
same,"Plant response rating, Velvetleaf","velvetleaf; Preemergence, Rate 62 g/ha",0
same,"Plant response rating, Velvetleaf","velvetleaf; Preemergence, Rate 125 g/ha",0
same,Velvetleaf plant response rating,velvetleaf; [4],0
same,Velvetleaf plant response rating,velvetleaf; [5],0
same,Velvetleaf plant response rating,velvetleaf; [6],0
same,Velvetleaf plant response rating,velvetleaf; [7],0
same,Wheat plant response rating,wheat; [8],0
same,"Plant response rating, Wheat","wheat; Preemergence, Rate 62 g/ha",0
same,"Plant response rating, Wheat","wheat; Preemergence, Rate 125 g/ha",0
same,Wheat plant response rating,wheat; [4],0
same,Wheat plant response rating,wheat; [5],0
same,Wheat plant response rating,wheat; [6],0
same,Wheat plant response rating,wheat; [7],0
same,Wild oats plant response rating,wild oat; [8],0
same,"Plant response rating, Wild oats","wild oat; Preemergence, Rate 62 g/ha",0
same,"Plant response rating, Wild oats","wild oat; Preemergence, Rate 125 g/ha",0
same,Wild oats plant response rating,wild oat; [4],0
same,Wild oats plant response rating,wild oat; [5],0
same,Wild oats plant response rating,wild oat; [6],0
same,Wild oats plant response rating,wild oat; [7],0
same,Nutsedge plant response rating,purple nutsedge; [8],0
same,"Plant response rating, Nutsedge","purple nutsedge; Preemergence, Rate 62 g/ha",0
same,"Plant response rating, Nutsedge","purple nutsedge; Preemergence, Rate 125 g/ha",0
same,Nutsedge plant response rating,purple nutsedge; [4],0
same,Nutsedge plant response rating,purple nutsedge; [5],0
same,Nutsedge plant response rating,purple nutsedge; [6],0
same,Nutsedge plant response rating,purple nutsedge; [7],0
same,"Plant response rating, Rice (0 to 10 scale, 0 is no effect, 10 is complete control)",rice; [9],0
same,"Rice plant response rating (0 to 10 scale, 0 is no effect, 10 is complete control)",rice; [10],0
same,Rice plant response rating,rice; [11],0
same,Rice plant response rating,rice; [12],0
same,"Plant response rating, S. Flatsedge (0 to 10 scale, 0 is no effect, 10 is complete control)",smallflower flatsedge; [9],0
same,"S. Flatsedge plant response rating (0 to 10 scale, 0 is no effect, 10 is complete control)",smallflower flatsedge; [10],0
same,S. Flatsedge plant response rating,smallflower flatsedge; [11],0
same,S. Flatsedge plant response rating,smallflower flatsedge; [12],0
same,"Plant response rating, Ducksalad (0 to 10 scale, 0 is no effect, 10 is complete control)",duck salad; [9],0
same,"Ducksalad plant response rating (0 to 10 scale, 0 is no effect, 10 is complete control)",duck salad; [10],0
same,Ducksalad plant response rating,duck salad; [11],0
same,Ducksalad plant response rating,duck salad; [12],0
same,"Plant response rating, Barnyardgrass (0 to 10 scale, 0 is no effect, 10 is complete control)",bamyardgrass; [9],0
same,"Barnyardgrass plant response rating (0 to 10 scale, 0 is no effect, 10 is complete control)",bamyardgrass; [10],0
same,Barnyardgrass plant response rating,bamyardgrass; [11],0
same,Barnyardgrass plant response rating,bamyardgrass; [12],0

# From US6737383B1, “Herbicidal oxadiazolidines” (priority 1999, dated 2004)
